Type in all cases: functional
For one assay, the target named is Lysine--tRNA ligase (Plasmodium falciparum (isolate 3D7), UniProt Q8IDJ8). Kind of assay: MMV: KRS recombinant Plasmodium falciparum Lysyl-tRNA-synthetase, assay with yeast tRNA, ATP, and lysine and 3 uM MMV malaria box compound, assay read out with kinase glo as % inhibition. In general terms: Kinase-Glo reads ATP consumption through a luciferase reaction.
For assay [1], the target named is T1, Putative uncharacterized protein pk7 (Plasmodium falciparum, UniProt O96214).
T1 sequence (O96214 whole entry): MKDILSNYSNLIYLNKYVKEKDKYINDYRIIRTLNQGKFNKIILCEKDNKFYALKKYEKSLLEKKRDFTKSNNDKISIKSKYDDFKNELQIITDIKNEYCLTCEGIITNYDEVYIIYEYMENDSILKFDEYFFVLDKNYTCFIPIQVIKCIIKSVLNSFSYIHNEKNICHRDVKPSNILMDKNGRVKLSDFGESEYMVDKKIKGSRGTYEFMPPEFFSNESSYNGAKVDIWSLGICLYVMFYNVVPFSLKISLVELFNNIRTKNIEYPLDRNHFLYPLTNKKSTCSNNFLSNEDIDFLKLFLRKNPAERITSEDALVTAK
Kind of assay: Final concentrations were 1 uM ATP, 2 mM DTT, 20 mM MgCl2, 2 mM MnCl2, 0.01% BSA, and 6 ug/ml PK7, in a buffer of 20 mM Tris-HCl (pH 7.5). The enzyme itself was the only substrate present (since autophosphorylation occurs); 100 uM 1NA-PP1 was used as a control inhibitor. Incubation time was 3 hours.

The target of assay [2] is Calcium-dependent protein kinase 1 (Plasmodium falciparum, UniProt P62344). The experiment in a line: MMV: CDPK1 Protein kinase inhibition assay using recombinant PfCDPK1, syntide 2 peptide substrate, ATP and KinaseGlo to measure % inhibition at 1 uM MMV box compound.
A further assay deals with T2, Proline--tRNA ligase (Plasmodium falciparum (isolate 3D7), UniProt Q8I5R7).
T2 sequence (Q8I5R7 whole entry): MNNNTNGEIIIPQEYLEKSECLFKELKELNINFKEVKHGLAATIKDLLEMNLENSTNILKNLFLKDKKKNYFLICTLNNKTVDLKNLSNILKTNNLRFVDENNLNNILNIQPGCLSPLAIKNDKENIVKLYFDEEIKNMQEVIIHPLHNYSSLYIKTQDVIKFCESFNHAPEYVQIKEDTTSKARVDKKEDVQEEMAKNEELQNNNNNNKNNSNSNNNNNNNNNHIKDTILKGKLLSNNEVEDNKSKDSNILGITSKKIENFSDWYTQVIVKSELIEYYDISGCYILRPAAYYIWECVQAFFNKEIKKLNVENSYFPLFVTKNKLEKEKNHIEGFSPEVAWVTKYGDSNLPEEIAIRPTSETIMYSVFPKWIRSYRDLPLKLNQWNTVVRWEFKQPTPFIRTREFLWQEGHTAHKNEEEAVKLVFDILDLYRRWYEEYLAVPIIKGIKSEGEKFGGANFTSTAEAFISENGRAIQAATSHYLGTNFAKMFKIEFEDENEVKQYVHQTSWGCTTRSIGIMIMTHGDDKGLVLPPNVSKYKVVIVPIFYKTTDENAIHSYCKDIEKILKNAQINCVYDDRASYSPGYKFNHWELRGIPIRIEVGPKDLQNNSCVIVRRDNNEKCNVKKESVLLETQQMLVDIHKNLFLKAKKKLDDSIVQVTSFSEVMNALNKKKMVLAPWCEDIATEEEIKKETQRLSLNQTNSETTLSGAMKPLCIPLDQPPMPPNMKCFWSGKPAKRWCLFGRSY
Kind of assay: MMV: ProRS recombinant Plasmodium falciparum Prolyl-tRNA-synthetase, assay with yeast tRNA, ATP, and proline and 3 uM MMV malaria box compound, assay read out with kinase glo as % inhibition.

For assay [3], the target named is T3, Mitogen-activated protein kinase (Plasmodium falciparum, UniProt Q25917).
T3 sequence (Q25917 whole entry): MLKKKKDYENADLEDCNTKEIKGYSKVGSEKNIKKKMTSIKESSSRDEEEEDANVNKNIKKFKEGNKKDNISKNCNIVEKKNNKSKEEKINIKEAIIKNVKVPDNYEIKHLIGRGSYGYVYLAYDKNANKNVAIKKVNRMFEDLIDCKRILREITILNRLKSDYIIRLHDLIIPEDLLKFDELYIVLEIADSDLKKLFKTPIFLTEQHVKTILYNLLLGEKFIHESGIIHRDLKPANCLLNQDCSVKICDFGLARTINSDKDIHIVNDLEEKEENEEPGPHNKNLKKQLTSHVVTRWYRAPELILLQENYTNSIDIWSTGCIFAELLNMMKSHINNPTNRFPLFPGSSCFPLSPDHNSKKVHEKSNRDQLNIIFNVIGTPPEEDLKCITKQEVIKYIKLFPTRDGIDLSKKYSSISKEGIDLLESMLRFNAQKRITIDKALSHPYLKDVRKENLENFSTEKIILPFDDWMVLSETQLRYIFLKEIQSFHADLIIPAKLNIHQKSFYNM
The experiment in a line: Final concentrations were 1 uM ATP, 0.5 mM DTT, 1 mM MgCl2, 0.5 mg/mL BSA, and 10 ug/ml MAP2 in a buffer of 50 mM HEPES (pH 7.0). 0.5 mg/mL histone III-S served as the substrate (13); 100 uM AMP-PNP, an ATP analog, was used as a control inhibitor. Incubation time was 4 hours.

In assay [4] the target is T4, Cdk-related protein kinase 6 (Plasmodium falciparum, UniProt O77239).
T4 sequence (O77239 whole entry): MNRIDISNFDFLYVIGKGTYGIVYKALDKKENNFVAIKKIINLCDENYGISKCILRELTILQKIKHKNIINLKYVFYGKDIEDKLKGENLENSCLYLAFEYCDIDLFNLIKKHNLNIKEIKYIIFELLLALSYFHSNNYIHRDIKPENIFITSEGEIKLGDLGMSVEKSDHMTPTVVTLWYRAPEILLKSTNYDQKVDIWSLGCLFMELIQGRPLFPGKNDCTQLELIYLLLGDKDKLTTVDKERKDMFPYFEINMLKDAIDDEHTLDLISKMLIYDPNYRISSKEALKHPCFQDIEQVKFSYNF
The experiment in a line: Final concentrations were 1.5 uM ATP, 5 mM MnCl2, and 15 ug/ml PK6 in a buffer of 100 mM Tris-HCl (pH 7.5). 50 ug/mL MBP was provided as the substrate; 10 uM staurosporine was used as a control inhibitor. Incubation time was 3 hours and 40 minutes.The catalytic activity of each kinase was considered proportional to ATP consumed, as determined from measurements of residual [ATP] with the luciferase-based reagent Kinase-Glo (Promega) following incubation. Luminescence (proportional to residual [ATP]) was measured on the plate readers FLx800 (BioTek Instruments, Winooski, VT, USA) and MicroBeta2.

Assay [5] concerns the target T5, Calcium-dependent protein kinase 4 (Plasmodium falciparum (isolate 3D7), UniProt Q8IBS5).
T5 sequence (Q8IBS5 whole entry): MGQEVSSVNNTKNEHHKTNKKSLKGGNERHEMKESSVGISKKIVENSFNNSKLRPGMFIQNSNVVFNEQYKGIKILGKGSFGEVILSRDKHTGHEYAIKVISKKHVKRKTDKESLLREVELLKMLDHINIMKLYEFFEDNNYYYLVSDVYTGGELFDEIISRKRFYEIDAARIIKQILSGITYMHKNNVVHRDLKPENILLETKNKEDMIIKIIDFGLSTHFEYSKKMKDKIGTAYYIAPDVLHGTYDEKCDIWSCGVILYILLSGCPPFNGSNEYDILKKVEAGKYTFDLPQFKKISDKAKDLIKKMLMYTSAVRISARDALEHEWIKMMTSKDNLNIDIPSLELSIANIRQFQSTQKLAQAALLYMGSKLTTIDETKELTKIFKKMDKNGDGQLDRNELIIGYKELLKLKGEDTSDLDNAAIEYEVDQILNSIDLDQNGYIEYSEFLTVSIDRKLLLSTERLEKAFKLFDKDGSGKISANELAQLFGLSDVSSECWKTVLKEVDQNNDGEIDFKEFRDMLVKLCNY
Kind of assay: MMV: CDPK4 Protein kinase inhibition assay using recombinant PfCDPK4, syntide2 peptide substrate, ATP and KinaseGlo to measure % inhibition at 1 uM MMV box compound.

Some results are limits rather than exact numbers.

What is called IC50 is the midpoint of a concentration-inhibition curve.

Chain of Lysine--tRNA ligase (Q8IDJ8 whole entry): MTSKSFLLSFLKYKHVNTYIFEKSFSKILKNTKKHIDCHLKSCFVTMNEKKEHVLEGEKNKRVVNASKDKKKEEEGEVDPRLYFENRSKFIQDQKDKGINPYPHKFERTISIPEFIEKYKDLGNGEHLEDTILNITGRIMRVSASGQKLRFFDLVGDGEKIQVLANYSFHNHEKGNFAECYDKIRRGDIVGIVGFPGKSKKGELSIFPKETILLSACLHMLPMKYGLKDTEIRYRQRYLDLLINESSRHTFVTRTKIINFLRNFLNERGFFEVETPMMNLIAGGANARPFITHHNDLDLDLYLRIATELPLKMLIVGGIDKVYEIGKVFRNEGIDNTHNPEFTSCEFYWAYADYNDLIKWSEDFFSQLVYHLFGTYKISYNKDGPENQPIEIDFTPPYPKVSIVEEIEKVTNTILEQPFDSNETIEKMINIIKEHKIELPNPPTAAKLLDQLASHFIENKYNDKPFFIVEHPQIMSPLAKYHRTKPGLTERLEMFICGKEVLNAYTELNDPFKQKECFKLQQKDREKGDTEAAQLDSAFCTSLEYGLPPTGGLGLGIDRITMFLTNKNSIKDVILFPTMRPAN
Chain of Calcium-dependent protein kinase 1 (P62344 whole entry): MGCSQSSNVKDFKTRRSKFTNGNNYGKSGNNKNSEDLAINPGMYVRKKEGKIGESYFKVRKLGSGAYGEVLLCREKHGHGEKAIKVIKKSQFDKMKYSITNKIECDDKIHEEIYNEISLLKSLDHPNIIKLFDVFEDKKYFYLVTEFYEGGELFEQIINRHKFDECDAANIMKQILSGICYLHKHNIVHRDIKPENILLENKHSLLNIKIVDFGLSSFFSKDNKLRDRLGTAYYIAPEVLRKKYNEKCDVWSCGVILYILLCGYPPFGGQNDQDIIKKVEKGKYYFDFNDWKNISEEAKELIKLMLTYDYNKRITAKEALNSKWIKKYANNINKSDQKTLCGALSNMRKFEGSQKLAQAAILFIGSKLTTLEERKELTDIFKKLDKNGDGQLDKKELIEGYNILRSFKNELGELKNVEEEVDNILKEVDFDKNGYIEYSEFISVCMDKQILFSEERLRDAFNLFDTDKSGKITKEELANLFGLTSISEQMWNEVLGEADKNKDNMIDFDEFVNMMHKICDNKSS

Consider `N=c1n(CCN2CCCCC2)c2ccccc2n1CC(O)c1cccc(Br)c1` (stereo not drawn), for which the IC50 at Lysine--tRNA ligase is greater than 2500 nM; in assay [1], greater than 1000 nM; in assay [2], greater than 1000 nM; at Proline--tRNA ligase, greater than 2500 nM; in assay [3] it was greater than 1000 nM; in assay [4], greater than 1000 nM. For the same compound, in assay [5], the IC50 was greater than 1000 nM.
In the case of `COc1cccc(O)c1CN1CCC2(CCCN(Cc3ccc(F)cc3)C2)C1` (stereo not drawn), the IC50 was greater than 2500 nM at Lysine--tRNA ligase; greater than 1000 nM in assay [1]; greater than 1000 nM in assay [2]; greater than 2500 nM at Proline--tRNA ligase; greater than 1000 nM in assay [3]; greater than 1000 nM in assay [4]. Besides, in assay [5], the IC50 is greater than 1000 nM.
For `FC(F)(F)c1ccc(Nc2nnnc3ccccc23)cc1`, the IC50 is greater than 2500 nM on Lysine--tRNA ligase; greater than 1000 nM in assay [1]; greater than 1000 nM in assay [2]; greater than 2500 nM on Proline--tRNA ligase; greater than 1000 nM in assay [3]; greater than 1000 nM in assay [4]. For the same compound, the IC50 in assay [5] is greater than 1000 nM.
Regarding `COc1cccc(NC(=O)Cn2c(C)c(C#N)c3ccccc32)c1`, the IC50 on Lysine--tRNA ligase is greater than 2500 nM; in assay [1], greater than 1000 nM; in assay [2], greater than 1000 nM; at Proline--tRNA ligase, greater than 2500 nM; in assay [3] it was greater than 1000 nM; in assay [4], greater than 1000 nM. In addition, the IC50 in assay [5] is greater than 1000 nM.
Regarding `CC(C)=CCN1CCC(C(=O)Nc2ccc(-c3nc4ccccc4[nH]3)cc2)CC1`, the IC50 on Lysine--tRNA ligase was greater than 2500 nM; in assay [1], greater than 1000 nM; in assay [2] it was greater than 1000 nM; on Proline--tRNA ligase, greater than 2500 nM; in assay [3] it was greater than 1000 nM; in assay [4], greater than 1000 nM. In addition, the IC50 in assay [5] is greater than 1000 nM.
As to `FC(F)(F)c1cccc(Nc2nc(-c3ccccc3)nc3ncccc23)c1`, the IC50 was greater than 2500 nM on Lysine--tRNA ligase; greater than 1000 nM in assay [1]; greater than 1000 nM in assay [2]; greater than 2500 nM at Proline--tRNA ligase; greater than 1000 nM in assay [3]; greater than 1000 nM in assay [4]. Further, in assay [5], the IC50 was greater than 1000 nM.
Turning to `CCN1CCN(c2cc(C)c3cc(NC(=O)c4ccc(OC)c(OC)c4)ccc3n2)CC1`, the IC50 at Lysine--tRNA ligase was greater than 2500 nM; in assay [1], greater than 1000 nM; in assay [2] it was greater than 1000 nM; at Proline--tRNA ligase it was greater than 2500 nM; in assay [3], greater than 1000 nM; in assay [4], greater than 1000 nM. In assay [5], the IC50 is greater than 1000 nM.
Take `COc1ccc(C(=O)Nc2ccc(Cl)cc2C(=O)Nc2ccncc2)cc1`: the IC50 at Lysine--tRNA ligase is greater than 2500 nM; in assay [1], greater than 1000 nM; in assay [2], greater than 1000 nM; at Proline--tRNA ligase it was greater than 2500 nM; in assay [3], greater than 1000 nM; in assay [4] it was greater than 1000 nM. Also, the half-maximal inhibitory concentration (IC50) in assay [5] was greater than 1000 nM.
Turning to `CN(C)c1ccc(-c2nc3cc(N)ccc3[nH]2)cc1`, the IC50 on Lysine--tRNA ligase was greater than 2500 nM; in assay [1], greater than 1000 nM; in assay [2], greater than 1000 nM; on Proline--tRNA ligase, greater than 2500 nM; in assay [3] it was greater than 1000 nM; in assay [4], greater than 1000 nM. For the same compound, the IC50 in assay [5] is greater than 1000 nM.
As to `O=C(CSc1ccc2nnc(-c3cccc(F)c3)n2n1)Nc1ccc2c(c1)OCO2`, the IC50 is greater than 2500 nM at Lysine--tRNA ligase; greater than 1000 nM in assay [1]; greater than 1000 nM in assay [2]; greater than 2500 nM on Proline--tRNA ligase; greater than 1000 nM in assay [3]; greater than 1000 nM in assay [4]. For the same compound, the IC50 in assay [5] was greater than 1000 nM.
Regarding `Cc1c(C)n(Cc2ccc(F)cc2)c2ccc(C(=O)NCc3ccco3)cc12`, the IC50 on Lysine--tRNA ligase is greater than 2500 nM; in assay [1] it was greater than 1000 nM; in assay [2] it was greater than 1000 nM; on Proline--tRNA ligase, greater than 2500 nM; in assay [3], greater than 1000 nM; in assay [4], greater than 1000 nM. Moreover, the IC50 in assay [5] was greater than 1000 nM.
For the compound `O=C(Nc1cccc(C(F)(F)F)c1)c1cc(Cl)ccc1O`, the IC50 on Lysine--tRNA ligase was greater than 2500 nM; in assay [1] it was greater than 1000 nM; in assay [2], greater than 1000 nM; at Proline--tRNA ligase, greater than 2500 nM; in assay [3], greater than 1000 nM; in assay [4], greater than 1000 nM. Also, the IC50 in assay [5] is greater than 1000 nM.
As to `CCOc1cccc2sc(N(Cc3cccnc3)C(=O)C3CCCCC3)nc12`, the IC50 at Lysine--tRNA ligase is greater than 2500 nM; in assay [1], greater than 1000 nM; in assay [2], greater than 1000 nM; on Proline--tRNA ligase, greater than 2500 nM; in assay [3], greater than 1000 nM; in assay [4], greater than 1000 nM. The IC50 in assay [5] was greater than 1000 nM.
Take `COc1ccccc1N1CCN(C(CNS(=O)(=O)c2ccc(Cl)cc2)c2cccnc2)CC1` (stereo not drawn): the IC50 on Lysine--tRNA ligase was greater than 2500 nM; in assay [1] it was greater than 1000 nM; in assay [2], greater than 1000 nM; at Proline--tRNA ligase, greater than 2500 nM; in assay [3] it was greater than 1000 nM; in assay [4], greater than 1000 nM. The IC50 in assay [5] was greater than 1000 nM.

The values above are taken from ChEMBL document CHEMBL3301562, “MMV Box screening against Plasmodium falciparum protein kinases and aminoacyl tRNA synthetases”.
